The values below come from patent US10364263B2, “Cyclic phosphates and cyclic phosphoramidates for the treatment of neurologic disorders” (Retrophin, Inc., priority 2015, dated 2019).

A short description of data set [1]: Stability in mouse hepatocytes. The format is in vitro ADME. The procedure:
(§1) Stability in hepatocytes for select compounds disclosed in the application was evaluated in two species (mouse and human) according to the following procedure. Compounds and positive control samples were dissolved in 100% DMSO at 5 mM. Cryopreserved hepatocytes were thawed and resuspended in Hepatocyte Basal Medium (HBM-Lonza CC-3199) supplemented with CC-4182 (complete hepatocyte culture medium). Test compounds were diluted into cell suspension (1 million cells/ml) from the stock solutions to have a test compound concentration of 5 μM (0.1% DMSO). Incubation was performed in 24-well plates, at 37° C. in a DUBNOFF water bath, under low shaking. Each compound was tested at 6 time points, in duplicates (0, 15, 30, 60, 120 and 240 min). At each time point, an aliquot of 120 μl was taken and transferred to a 96-well deep plate. The reaction was stopped with the addition of one volume of 100% acetonitrile plus 0.1% formic acid and the appropriate internal standard. Then samples were centrifuged at 1100×g for 30 min at +4° C. and supernatants were transferred to a new 96-deepwell plate. Samples were evaporated under N2 and reconstituted in H2O/ACN 0.1% Formic Acid (98:2). Analysis was performed without a calibration curve (Acquity UPLC-Waters; Sciex API4000). Time 0 was obtained adding acetonitrile before addition of the test compound. […] The half-life (t1/2) expressed in hours is derived using Equation 1 as shown in Example 64.

Data set [2] is described as follows: Stability in human plasma. The format is in vitro ADME. Particulars: 37° C. The procedure, abridged: (§2)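 Test compound at 3 μM (0.1% DMSO) was incubated in mouse or human plasma at 37 °C and sampled in duplicate at 0, 10, 20, 30, 40 and 60 min. Reactions were stopped with acetonitrile/formic acid containing internal standard. Remaining parent was measured by UPLC-MS/MS without a calibration curve.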

Data set [3] has as its system PANK2 silenced human neuroblastoma IMR32 cells (PANK2−/−). The data set is described as follows: Coenzyme A assay in PANK2 silenced cells (LC-MS quantification of free CoA). In kind it is cell-based. Particulars: compound added twice (24 h + 24 h), relative to 0.1% DMSO controls. The method in brief: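 PANK2 shRNA-silenced IMR32 neuroblastoma cells were treated with compound (0.1% DMSO) for 24 h, then re-dosed with fresh compound for a further 24 h at 37 °C. TFA extracts of 1×10^6 cells were assayed for free CoA by LC-MS/MS (MRM 768.1→261.6/136.1). Results are given as fold change versus DMSO controls.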

The nature of data set [4]: Stability in human hepatocytes. The format is in vitro ADME. Particulars: for half-life at 5 µM: t1/2, Human Hepatocytes. The method, then: as §1
Data set [5] can be described thus: Stability in mouse plasma. The format is in vitro ADME. The note with it: for t1/2, Mouse Plasma, Diastereoisomer B: 3 µM. The method in brief: as §2
[6] abbreviates: t1/2, Mouse Hepatocytes, Diastereoisomer A.
[7] abbreviates: t1/2, Mouse Hepatocytes, Diastereoisomer B.
[8] abbreviates: human, plasma, Diastereoisomer A (upfield shift in 31P NMR), read-out: t1/2, Human Plasma, Diastereoisomer A (converted).
[9] abbreviates: human, plasma, Diastereoisomer B, read-out: t1/2, Human Plasma, Diastereoisomer B (converted).

Consider `COC(=O)CCNC(=O)[C@@H]1OP(=O)(N[C@@H](Cc2ccc(OC(C)(C)C)cc2)C(=O)OC(C)(C)C)OCC1(C)C` (stereo partly drawn) [compound 15], for which the half-life at 5 µM was below 15 min in data set [1] (setting [6]), below 15 min in data set [1] (setting [7]), 18.6 min in data set [4] (Diastereoisomer A) and below 15 min in data set [4] (Diastereoisomer B). In addition, the half-life at 3 µM in data set [2] (setting [8]) is above 60 min; in data set [2] (setting [9]), above 60 min; in data set [5] (mouse, plasma), below 9.6 min. The “PANK2−/− CoA (Fold Increase): fold increase in Coenzyme A (CoA) levels relative to controls” value in data set [3] stood at 0.5 Fold Increase. Besides, in data set [5] (mouse, plasma), the “t1/2, Mouse Plasma, Diastereoisomer B” value was below 9.6 min.
As to `CCC(CC)C(=O)OCOP1(=O)OCC(C)(C)[C@H](C(=O)NCCC(=O)OC)O1` (stereo partly drawn) [Compound No. 67, (((4R)-4-((3-methoxy-3-oxopropyl)carbamoyl)-5,5-dimethyl-2-oxido-1,3,2-dioxaphosphinan-2-yl)oxy)methyl 2-ethylbutanoate], the half-life at 5 µM in data set [1] (setting [6]), in data set [1] (setting [7]), in data set [4] (Diastereoisomer A) and in data set [4] (Diastereoisomer B) was below 15 min throughout. Further, the half-life at 3 µM in data set [2] (setting [8]) was above 60 min; in data set [2] (setting [9]) it was below 9.6 min; in data set [5] (mouse, plasma), below 9.6 min. Besides, in data set [3], the “PANK2−/− CoA (Fold Increase): fold increase in Coenzyme A (CoA) levels relative to controls” value amounted to 122.4 Fold Increase. Also, in data set [5] (mouse, plasma), the “t1/2, Mouse Plasma, Diastereoisomer B” value is below 9.6 min.
`COC(=O)CCNC(=O)[C@@H]1OP(=O)(N[C@@H](Cc2cccnc2)C(=O)OC)OCC1(C)C` (stereo partly drawn) [compound 25, (2S)-methyl 2-(((4R)-4-((3-methoxy-3-oxopropyl)carbamoyl)-5,5-dimethyl-2-oxido-1,3,2-dioxaphosphinan-2-yl)amino)-3-(pyridin-3-yl)propanoate]: the half-life at 5 µM is 36 min in data set [1] (setting [6]) and above 240 min in data set [4] (Diastereoisomer A). Moreover, the half-life at 3 µM in data set [2] (setting [8]) is above 60 min; in data set [5] (mouse, plasma), below 9.6 min. Moreover, the “PANK2−/− CoA (Fold Increase): fold increase in Coenzyme A (CoA) levels relative to controls” value in data set [3] came out at 0.95 Fold Increase.
For the compound `COC(=O)CCNC(=O)[C@@H]1OP(=O)(N[C@H](C)C(=O)OCCc2ccccc2)OCC1(C)C` (stereo partly drawn) [compound 26, methyl 3-((4R)-5,5-dimethyl-2-oxido-2-(((R)-1-oxo-1-phenethoxypropan-2-yl)amino)-1,3,2-dioxaphosphinane-4-carboxamido)propanoate], the half-life at 5 µM in data set [1] (setting [6]) was below 15 min; in data set [1] (setting [7]) it was below 15 min; in data set [4] (Diastereoisomer A), 18.6 min; in data set [4] (Diastereoisomer B), below 15 min. Also, the half-life at 3 µM is above 60 min in data set [2] (setting [8]); above 60 min in data set [2] (setting [9]); below 9.6 min in data set [5] (mouse, plasma). Further, the “PANK2−/− CoA (Fold Increase): fold increase in Coenzyme A (CoA) levels relative to controls” value in data set [3] is on record as 2.29 Fold Increase. Also, the “t1/2, Mouse Plasma, Diastereoisomer B” value in data set [5] (mouse, plasma) is below 9.6 min.
For `CC(C)(C)C(=O)OCOP1(=O)OCC(C)(C)[C@H](C(=O)NCCC(=O)OCc2ccncc2)O1` (stereo in doubt) [Compound No. 71, (((2S,4R)-5,5-dimethyl-2-oxido-4-((3-oxo-3-(pyridin-4-ylmethoxy)propyl)carbamoyl)-1,3,2-dioxaphosphinan-2-yl)oxy)methyl pivalate], the half-life at 5 µM in data set [1] (setting [6]), in data set [1] (setting [7]), in data set [4] (Diastereoisomer A) and in data set [4] (Diastereoisomer B) was below 15 min throughout. In addition, the half-life at 3 µM in data set [2] (setting [8]) was above 60 min; in data set [2] (setting [9]), below 9.6 min; in data set [5] (mouse, plasma), below 9.6 min. Besides, the “PANK2−/− CoA (Fold Increase): fold increase in Coenzyme A (CoA) levels relative to controls” value in data set [3] was 39.37 Fold Increase. Further, the “t1/2, Mouse Plasma, Diastereoisomer B” value in data set [5] (mouse, plasma) was below 9.6 min.
As for `COC(=O)CCNC(=O)[C@@H]1O[P@@](=O)(OCOC(=O)C(C)(C)C)OCC1(C)C` (single isomer, unassigned) [Compound No. 90], the half-life at 5 µM in data set [1] (setting [6]) and in data set [4] (Diastereoisomer A) was below 15 min in each case. Besides, the half-life at 3 µM is 45.6 min in data set [2] (setting [8]) and below 9.6 min in data set [5] (mouse, plasma). In data set [3], the “PANK2−/− CoA (Fold Increase): fold increase in Coenzyme A (CoA) levels relative to controls” value amounted to 286.0 Fold Increase.
For `COC(=O)CCNC(=O)[C@@H]1OP(=O)(N[C@H](C(=O)OC(C)(C)C)C2CCCCC2)OCC1(C)C` (stereo partly drawn) [compound 14, methyl 3-((4R)-2-(((S)-2-(tert-butoxy)-1-cyclohexyl-2-oxoethyl)amino)-5,5-dimethyl-2-oxido-1,3,2-dioxaphosphinane-4-carboxamido)propanoate], the half-life at 5 µM in data set [1] (setting [6]) was below 15 min; in data set [1] (setting [7]), below 15 min; in data set [4] (Diastereoisomer A), 17.4 min; in data set [4] (Diastereoisomer B), below 15 min. Besides, the half-life at 3 µM in data set [2] (setting [8]) was above 60 min; in data set [2] (setting [9]), above 60 min; in data set [5] (mouse, plasma), below 9.6 min. Further, the “PANK2−/− CoA (Fold Increase): fold increase in Coenzyme A (CoA) levels relative to controls” value in data set [3] is 1.59 Fold Increase. Moreover, in data set [5] (mouse, plasma), the “t1/2, Mouse Plasma, Diastereoisomer B” value is below 9.6 min.
As to `COC(=O)CCNC(=O)[C@@H]1OP(=O)(N[C@@H](Cc2cncs2)C(=O)OCc2ccccc2)OCC1(C)C` (stereo partly drawn) [compound 29, benzyl (2S)-2-(((4R)-4-((3-methoxy-3-oxopropyl)carbamoyl)-5,5-dimethyl-2-oxido-1,3,2-dioxaphosphinan-2-yl)amino)-3-(thiazol-5-yl)propanoate], the half-life at 5 µM in data set [1] (setting [6]) is below 15 min; in data set [1] (setting [7]), below 15 min; in data set [4] (Diastereoisomer A), 36 min; in data set [4] (Diastereoisomer B) it was 15.6 min. Besides, the half-life at 3 µM in data set [2] (setting [8]) is above 60 min; in data set [2] (setting [9]) it was above 60 min; in data set [5] (mouse, plasma), below 9.6 min. Besides, the “PANK2−/− CoA (Fold Increase): fold increase in Coenzyme A (CoA) levels relative to controls” value in data set [3] turned out to be 1.17 Fold Increase. Further, the “t1/2, Mouse Plasma, Diastereoisomer B” value in data set [5] (mouse, plasma) was below 9.6 min.
For `COC(=O)CCNC(=O)[C@@H]1OP(=O)(N[C@@H](Cc2ccccc2)C(=O)OC(C)(C)C)OCC1(C)C` (stereo partly drawn) [compound 4], the half-life at 5 µM in data set [1] (Diastereoisomer A (upfield shift in 31P NMR), 5 μM, 1 million cells/ml, 37° C., mouse hepatocytes, read-out: t1/2, Mouse Hepatocytes, Diastereoisomer A (converted)) is 34.8 min. The half-life at 3 µM is above 60 min in data set [2] (Diastereoisomer A (upfield shift in 31P NMR), read-out: t1/2, Human Plasma, Diastereoisomer A (converted)) and below 9.6 min in data set [5] (Diastereoisomer A (upfield shift in 31P NMR), 3 μM, 37° C., mouse plasma, read-out: t1/2, Mouse Plasma, Diastereoisomer A). In addition, the “PANK2−/− CoA (Fold Increase): fold increase in Coenzyme A (CoA) levels relative to controls” value in data set [3] came out at 1.2 Fold Increase. Moreover, the half-life in data set [4] (Diastereoisomer A (upfield shift in 31P NMR), 5 μM, 1 million cells/ml, 37° C., human hepatocytes, read-out: t1/2, Human Hepatocytes, Diastereoisomer A (converted)) is 26.4 min.
Take `COC(=O)CCNC(=O)[C@@H]1OP(=O)(N[C@@H](C)C(=O)OC[C@H]2CCC(=O)N2)OCC1(C)C` (stereo partly drawn) [compound 23, methyl 3-((4R)-5,5-dimethyl-2-oxido-2-(((S)-1-oxo-1-(((R)-5-oxopyrrolidin-2-yl)methoxy)propan-2-yl)amino)-1,3,2-dioxaphosphinane-4-carboxamido)propanoate]: the half-life at 5 µM in data set [1] (setting [6]) was 70.8 min; in data set [1] (setting [7]) it was 33 min; in data set [4] (Diastereoisomer A), above 240 min; in data set [4] (Diastereoisomer B), above 240 min. In addition, the half-life at 3 µM in data set [2] (setting [8]) was below 9.6 min; in data set [2] (setting [9]), 57.6 min; in data set [5] (mouse, plasma), below 9.6 min. Further, the “PANK2−/− CoA (Fold Increase): fold increase in Coenzyme A (CoA) levels relative to controls” value in data set [3] is on record as 2.08 Fold Increase. The “t1/2, Mouse Plasma, Diastereoisomer B” value in data set [5] (mouse, plasma) is below 9.6 min.
As for `COC(=O)CCNC(=O)[C@@H]1OP(=O)(N[C@H](C(=O)OCc2ccccc2)C(C)C)OCC1(C)C` (stereo partly drawn) [compound 13, benzyl ((4R)-4-((3-methoxy-3-oxopropyl)carbamoyl)-5,5-dimethyl-2-oxido-1,3,2-dioxaphosphinan-2-yl)-L-valinate], the half-life at 5 µM was 28.2 min in data set [1] (setting [6]), 24 min in data set [1] (setting [7]), 31.8 min in data set [4] (Diastereoisomer A) and below 15 min in data set [4] (Diastereoisomer B). Further, the half-life at 3 µM in data set [2] (setting [8]) was above 60 min; in data set [2] (setting [9]), above 60 min; in data set [5] (mouse, plasma), below 9.6 min. For the same compound, the “PANK2−/− CoA (Fold Increase): fold increase in Coenzyme A (CoA) levels relative to controls” value in data set [3] is given as 1 Fold Increase. Moreover, the “t1/2, Mouse Plasma, Diastereoisomer B” value in data set [5] (mouse, plasma) was below 9.6 min.
